Test results: ChEMBL document CHEMBL3784945, “Isoindolinone compounds active as Kv1.5 blockers identified using a multicomponent reaction approach” (Bioorg Med Chem Lett, 2016)
pIC50: −log10 of the molar value. Converted amounts (≈) assume the structure as drawn.

Key:
[1] = biological target: T1, Potassium voltage-gated channel subfamily A member 5 (Homo sapiens, UniProt P22460); experiment: Inhibition of human Kv1.5 channel by QPatch-clamp method
[2] = (§1) Intrinsic clearance in human liver microsomes; type: ADME; settings: liver microsomes, read-out: CLH
[3] = Lipophilicity, log D of the compound by HPLC analysis; type: physicochemical
Mus musculus = experiment: In vivo inhibition of Kv1.5 channel in BaLBc mouse assessed as unbound steady-state plasma concentration required to increase QT-interval by 30% at 20 umol/kg,iv for 15 mins; type: functional
[4] = biological target: Voltage-gated inwardly rectifying potassium channel KCNH2 (Homo sapiens, UniProt Q12809); experiment: Inhibition of human ERG
[5] = biological target: T1, Potassium voltage-gated channel subfamily A member 5; experiment: Inhibition of human Kv1.5 channel by Rb-flux assay
Liver microsome = experiment: as §1; type: ADME; settings: microsomes
[6] = Absolute bioavailability in dog; type: ADME, organism-based, Canis lupus familiaris; settings: in vivo
[7] = Solubility of the compound; type: physicochemical
Cytochrome P450 3A4 = Cytochrome P450 3A4 (Homo sapiens, UniProt P08684); experiment: Inhibition of CYP3A4 (unknown origin); type: ADME
[8] = Absolute bioavailability in rat; type: ADME, organism-based; settings: in vivo
[9] = Clearance in iv dosed rat; type: ADME, organism-based; settings: in vivo
[10] = Clearance in iv dosed dog; type: ADME, organism-based, Canis lupus familiaris; settings: in vivo
[11] = Solubility of crystalline form of compound; type: physicochemical

T1 sequence (P22460 whole entry): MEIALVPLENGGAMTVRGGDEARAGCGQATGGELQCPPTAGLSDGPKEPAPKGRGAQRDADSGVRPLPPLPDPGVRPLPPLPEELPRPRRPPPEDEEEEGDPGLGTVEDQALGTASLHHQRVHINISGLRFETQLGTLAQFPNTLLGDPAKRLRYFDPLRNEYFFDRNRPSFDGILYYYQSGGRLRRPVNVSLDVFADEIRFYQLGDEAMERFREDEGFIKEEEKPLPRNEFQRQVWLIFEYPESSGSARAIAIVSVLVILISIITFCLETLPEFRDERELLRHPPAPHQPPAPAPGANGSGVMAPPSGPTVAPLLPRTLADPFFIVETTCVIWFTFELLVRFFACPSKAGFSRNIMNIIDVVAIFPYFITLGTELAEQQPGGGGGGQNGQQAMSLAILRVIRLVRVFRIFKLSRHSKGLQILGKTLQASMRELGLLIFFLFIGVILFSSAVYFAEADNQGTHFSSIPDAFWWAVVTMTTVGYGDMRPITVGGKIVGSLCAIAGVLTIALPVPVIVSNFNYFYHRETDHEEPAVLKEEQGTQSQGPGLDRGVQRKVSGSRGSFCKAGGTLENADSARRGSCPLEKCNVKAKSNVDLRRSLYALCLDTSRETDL
Chain of Voltage-gated inwardly rectifying potassium channel KCNH2 (Q12809 whole entry): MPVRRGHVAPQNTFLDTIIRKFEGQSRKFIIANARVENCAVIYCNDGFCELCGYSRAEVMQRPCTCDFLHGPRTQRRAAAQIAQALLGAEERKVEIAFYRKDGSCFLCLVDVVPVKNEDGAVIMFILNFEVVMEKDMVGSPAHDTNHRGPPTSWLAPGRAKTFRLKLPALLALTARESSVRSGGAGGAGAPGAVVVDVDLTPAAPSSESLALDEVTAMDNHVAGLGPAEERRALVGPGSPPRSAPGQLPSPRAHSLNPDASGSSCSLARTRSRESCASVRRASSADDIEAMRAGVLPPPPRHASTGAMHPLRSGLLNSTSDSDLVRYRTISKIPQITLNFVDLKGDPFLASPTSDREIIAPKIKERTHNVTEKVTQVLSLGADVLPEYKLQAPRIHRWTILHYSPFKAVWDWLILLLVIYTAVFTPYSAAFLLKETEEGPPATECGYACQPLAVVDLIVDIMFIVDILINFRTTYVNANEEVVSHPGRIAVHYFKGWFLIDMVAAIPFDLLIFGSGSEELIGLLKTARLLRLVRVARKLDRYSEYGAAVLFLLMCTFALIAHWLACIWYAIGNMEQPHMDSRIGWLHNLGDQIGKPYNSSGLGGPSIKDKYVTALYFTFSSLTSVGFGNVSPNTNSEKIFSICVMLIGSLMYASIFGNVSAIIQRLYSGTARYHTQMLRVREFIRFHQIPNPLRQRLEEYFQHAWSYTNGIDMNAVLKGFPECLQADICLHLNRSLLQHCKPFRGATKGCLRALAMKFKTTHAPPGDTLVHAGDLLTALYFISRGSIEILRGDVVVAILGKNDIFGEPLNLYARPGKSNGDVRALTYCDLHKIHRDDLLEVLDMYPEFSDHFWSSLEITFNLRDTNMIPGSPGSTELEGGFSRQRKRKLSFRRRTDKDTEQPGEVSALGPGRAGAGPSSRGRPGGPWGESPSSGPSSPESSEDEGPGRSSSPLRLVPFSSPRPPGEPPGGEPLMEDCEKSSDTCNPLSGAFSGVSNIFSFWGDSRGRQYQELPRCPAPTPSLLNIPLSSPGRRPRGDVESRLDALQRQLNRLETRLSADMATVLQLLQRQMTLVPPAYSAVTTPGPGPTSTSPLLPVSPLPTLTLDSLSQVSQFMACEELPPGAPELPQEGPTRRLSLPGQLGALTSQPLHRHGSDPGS
Chain of Cytochrome P450 3A4 (P08684 whole entry): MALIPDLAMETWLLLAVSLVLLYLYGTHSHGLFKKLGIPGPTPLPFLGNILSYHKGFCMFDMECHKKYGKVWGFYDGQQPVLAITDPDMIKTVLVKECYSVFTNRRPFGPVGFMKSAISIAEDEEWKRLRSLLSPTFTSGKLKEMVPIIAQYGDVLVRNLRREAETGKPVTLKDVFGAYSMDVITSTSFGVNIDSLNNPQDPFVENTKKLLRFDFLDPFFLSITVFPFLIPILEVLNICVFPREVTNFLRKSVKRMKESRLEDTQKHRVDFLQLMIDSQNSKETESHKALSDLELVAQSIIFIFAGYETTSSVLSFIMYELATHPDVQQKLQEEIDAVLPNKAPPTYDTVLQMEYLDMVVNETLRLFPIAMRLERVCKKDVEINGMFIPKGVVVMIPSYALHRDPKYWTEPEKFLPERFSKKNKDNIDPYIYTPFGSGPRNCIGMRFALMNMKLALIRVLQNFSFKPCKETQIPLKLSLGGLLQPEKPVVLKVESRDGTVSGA

Row | Structure (SMILES) | pIC50 [1] | microsomal CLint [2] [µL/min/mg] | logD ([3]; read-out: logD) | pIC50 [4] | pIC50 [5] | further results
1 | CC(C)(CN1C(=O)c2ccccc2C1C(=O)NCCCC(F)F)c1ccc(F)cc1 (centres undefined) | 6.22 | 23 | 4.1 | – | – | –
2 | Cc1c(O)ccc2c1C(=O)N(Cc1ccccc1-c1ccc(F)c(F)c1)C2C(=O)NC(C)(C)C (centres undefined) | 5.46 | < 12 | 4.6 | – | – | –
3 | CC(C)(CN1C(=O)c2ccccc2C1C(=O)NCC(F)F)c1ccc(F)cc1 (centres undefined) | 5.92 | < 12 | 3.7 | – | – | Activity (Mus musculus): 1.6 µM
4 | CCCCNC(=O)C1c2ccccc2C(=O)N1CC(C)(O)c1ccc(Cl)cc1 (centres undefined) | 5.92 | 64 | 3.5 | – | – | –
5 | CC(C)(C)NC(=O)C1c2ccccc2C(=O)N1Cc1ccccc1-c1ccc(F)cc1 (centres undefined) | 5.22 | 53 | 4.8 | 4.25 | – | –
6 | CC(C)(C)NC(=O)C1c2ccccc2C(=O)N1Cc1ccc(F)cc1-c1ccc(F)cc1 (centres undefined) | 5.85 | 34 | 5 | < 4.48 | – | Activity (Mus musculus): 0.9 µM
7 | Cc1c(O)ccc2c1C(=O)N(Cc1ccccc1-c1ccc(F)cc1)C2C(=O)NC(C)(C)C (centres undefined) | 5.57 | < 12 | 4.5 | < 4.49 | – | –
8 | CCCCNC(=O)C1c2ccccc2C(=O)N1CC(C)c1ccc(Cl)cc1 (racemic) | 5.96 | > 100 | 4.5 | 4.49 | 6.15 | –
9 | COc1ccc2c(c1)C(=O)N(Cc1ccccc1-c1ccccc1)C2C(=O)NC(C)(C)C (racemic) | – | > 100 | 4.9 | 4.52 | 4.95 | –
10 | COc1ccc2c(c1C)C(=O)N(Cc1ccccc1-c1ccccc1)C2C(=O)NC(C)(C)C (racemic) | 6.10 | > 100 | 5.6 | – | – | –
11 | Cc1c(OC(F)F)ccc2c1C(=O)N(Cc1ccccc1-c1ccccc1)C2C(=O)NC(C)(C)C (racemic) | – | > 100 | 5.9 | 4.66 | 5.92 | –
12 | Cc1c(O)ccc2c1C(=O)N(Cc1ccccc1-c1ccccc1)C2C(=O)NC(C)(C)C (racemic) | 5.70 | < 12 | 4.4 | 4.34 | 5.49 | –
13 | CCCCNC(=O)C1c2ccccc2C(=O)N1CC(C)c1ccc(F)cc1 (racemic) | 6.05 | 180 | 4.1 | – | – | –
14 | O=C(NCc1ccncc1)C1c2ccccc2C(=O)N1Cc1ccccc1-c1ccccc1 (racemic) | – | > 100 | – | < 4.48 | 4.89 | –
15 | CC(C)(C)NC(=O)C1c2cc(Cl)ccc2C(=O)N1C(c1cccnc1)c1cccnc1 (racemic) | – | 62 | – | – | < 4.49 | –
16 | CC(c1ccccc1)N1C(=O)c2ccccc2C1C(=O)NCc1ccccc1 (racemic) | – | > 100 | 3.5 | < 4.48 | – | –
17 | Cc1c(OS(C)(=O)=O)ccc2c1C(=O)N(Cc1ccccc1-c1ccccc1)C2C(=O)NC(C)(C)C (racemic) | – | > 100 | 5.1 | < 4.49 | 4.98 | –
18 | COCCOCCNC(=O)C1c2cc(F)ccc2C(=O)N1CC(C)c1ccc(Cl)cc1 (racemic) | – | > 100 | 3.6 | < 4.48 | < 4.49 | –
19 | CC(c1ccccc1)N1C(=O)c2ccccc2C1C(=O)NC(C)(C)CO (racemic) | < 5.00 | 34 | – | < 4.48 | < 4.49 | –
20 | CC(C)(C)NC(=O)C1c2ccccc2C(=O)N1Cc1ccccc1-c1ccccc1 (racemic) | – | > 100 | 4.7 | 4.21 | – | –
21 | CC(C)(C)NC(=O)C1c2ccc(C#N)cc2C(=O)N1Cc1ccccc1-c1ccccc1 (racemic) | – | > 100 | 4.7 | – | 4.43 | –
22 | Cc1c(OCF)ccc2c1C(=O)N(Cc1ccccc1-c1ccccc1)C2C(=O)NC(C)(C)C (racemic) | 5.89 | > 100 | 5.6 | – | – | –
23 | CC(C)(C)NC(=O)C1c2cc(C#N)ccc2C(=O)N1Cc1ccccc1-c1ccccc1 (racemic) | 5.48 | > 100 | 4.7 | < 4.48 | – | –

Row | Structure (SMILES) | pIC50 [1] | microsomal CLint [2] [µL/min/mg] | logD ([3]; read-out: logD) | pIC50 [4] | pIC50 [5] | further results
24 | CC(C)(C)NC(=O)C1c2ccc(NS(C)(=O)=O)cc2C(=O)N1Cc1ccccc1-c1ccccc1 (racemic) | 5.12 | 59 | 4 | 4.82 | 4.77 | –
25 | CC(C)(C)NC(=O)C1c2ccc(O)cc2C(=O)N1Cc1ccccc1-c1ccccc1 (racemic) | 5.16 | > 100 | 4 | 4.35 | 5.08 | –
26 | CC(C)(C)NC(=O)C1c2c(O)cccc2C(=O)N1Cc1ccccc1-c1ccccc1 (racemic) | 5.68 | > 100 | 4.6 | 4.55 | – | –
27 | Cc1c(NS(C)(=O)=O)ccc2c1C(=O)N(Cc1ccccc1-c1ccccc1)C2C(=O)NC(C)(C)C (racemic) | 5.35 | 88 | 4.3 | < 4.48 | 4.51 | –
28 | CC(CN1C(=O)c2ccccc2C1C(=O)NCC(F)F)c1ccc(Cl)cc1 (racemic) | 5.92 | 73 | 3.7 | – | – | –
29 | CC(C)(C)NC(=O)C1c2ccccc2C(=O)N1Cc1ccc(F)cc1-c1ccccc1 (single isomer, unassigned) | 5.77 | – | – | < 4.49 | – | CLH (Liver microsome): 62 µL/min/mg
30 | Cc1c(O)ccc2c1C(=O)N(Cc1ccccc1-c1ccccc1)C2C(=O)NC(C)(C)C (single isomer, unassigned) | 5.89 | – | – | < 4.49 | 5.96 | CLH (Liver microsome): 20 µL/min/mg
31 | CC(C)(C)NC(=O)C1c2ccccc2C(=O)N1Cc1ccc(F)cc1-c1ccccc1 (single isomer, unassigned; enantiomer 1) | 6.10 | 58 | 5.2 | < 4.48 | – | Activity (Mus musculus): 0.054 µM
32 | CC(C)(C)NC(=O)C1c2ccccc2C(=O)N1Cc1cc(F)ccc1-c1ccc(F)cc1 (single isomer, unassigned; enantiomer 1) | 5.70 | 49 | 5.3 | < 4.48 | – | Activity (Mus musculus): 0.055 µM
33 | CC(C)(CN1C(=O)c2ccccc2C1C(=O)NCCCF)c1ccc(Cl)cc1 (single isomer, unassigned; enantiomer 1) | 6.15 | 14 | 4.2 | < 4.48 | – | bioavailability [6]: 41%; solubility [7]: 83 µM (≈ 33.4 µg/mL); pIC50 (Cytochrome P450 3A4): < 4.30; bioavailability [8]: 58%; Activity (Mus musculus): 0.4 µM; clearance [9]: 4.7 mL/min/kg; clearance [10]: 18 mL/min/kg
34 | CC(C)(C)NC(=O)C1c2ccccc2C(=O)N1Cc1ccccc1-c1ccccc1 (single isomer, unassigned; enantiomer 1) | – | – | – | < 4.48 | – | –
35 | CC(C)(C)NC(=O)C1c2ccccc2C(=O)N1Cc1cc(F)ccc1-c1ccccc1 (single isomer, unassigned; enantiomer 1) | 5.85 | 102 | 5.2 | < 4.48 | – | Activity (Mus musculus): 0.079 µM
36 | CC(C)(C)NC(=O)C1c2ccccc2C(=O)N1Cc1cc(F)ccc1-c1ccc(F)cc1 (single isomer, unassigned; enantiomer 2) | 6.05 | – | – | < 4.48 | – | CLH (Liver microsome): 41 µL/min/mg; Activity (Mus musculus): 0.28 µM
37 | CC(C)(CN1C(=O)c2ccccc2C1C(=O)NCCCF)c1ccc(Cl)cc1 (single isomer, unassigned; enantiomer 2) | 6.00 | – | – | – | – | CLH (Liver microsome): 19 µL/min/mg
38 | Cc1c(O)ccc2c1C(=O)N(Cc1ccccc1-c1ccccc1)C2C(=O)NC(C)(C)C (single isomer, unassigned; enantiomer 2) | 5.47 | – | – | 4.59 | 4.77 | CLH (Liver microsome): 24 µL/min/mg
39 | CC(C)(C)NC(=O)C1c2ccccc2C(=O)N1Cc1ccccc1-c1ccc(F)c(F)c1 (single isomer, unassigned; enantiomer 2) | 5.96 | – | – | < 4.51 | – | CLH (Liver microsome): 103 µL/min/mg
40 | CC(C)(C)NC(=O)C1c2ccccc2C(=O)N1Cc1ccccc1-c1ccccc1 (single isomer, unassigned; enantiomer 2) | – | – | – | < 4.48 | – | –
41 | CC(C)(C)NC(=O)C1c2ccccc2C(=O)N1Cc1cc(F)ccc1-c1ccccc1 (single isomer, unassigned; enantiomer 2) | 5.80 | – | – | < 4.48 | – | CLH (Liver microsome): 96 µL/min/mg
42 | CCCNC(=O)C1c2ccccc2C(=O)N1CC(C)c1ccc(Cl)cc1 (single isomer, unassigned; isomer 1) | 6.40 | 99 | 4.2 | – | – | bioavailability [6]: 63%; pIC50 (Cytochrome P450 3A4): < 4.30; solubility [11]: 21 µM (≈ 7.79 µg/mL); bioavailability [8]: 81%; Activity (Mus musculus): 0.5 µM; clearance [9]: 7.8 mL/min/kg; clearance [10]: 6 mL/min/kg
43 | CCCNC(=O)C1c2ccccc2C(=O)N1CC(C)c1ccc(Cl)cc1 (single isomer, unassigned; isomer 2) | 6.15 | – | – | – | – | CLH (Liver microsome): 183 µL/min/mg; Activity (Mus musculus): 0.4 µM; logD [3]: 3.9
44 | CC(C)(C)NC(=O)C1c2ccccc2C(=O)N1Cc1ccccc1-c1ccc(F)c(F)c1 (stereo in doubt; 16E1) | 5.82 | – | 5 | < 4.48 | – | CLH (Liver microsome): 38 µL/min/mg; Activity (Mus musculus): 0.066 µM
45 | CC(C)(CN1C(=O)c2ccccc2C1C(=O)NCCCF)c1ccc(Cl)cc1 (stereo in doubt; 23) | 6.30 | – | – | – | – | CLH (Liver microsome): < 12 µL/min/mg; Activity (Mus musculus): 1.3 µM; logD [3]: 4
